Experimental findings from patent publication US11149014B2, “Method for treating pain or associated condition or symptom” (priority 2014, dated 2021) are described below.

What all share (type): in vivo
The subject of one data set is Female sabra mice. Nature of the data set: Forced swimming test (FST) for depressive effect. The following applies: 5 mg/kg, 10 min after ip. The protocol:
To find out whether HU436 has depressive effects on mice behavior—a forced swimming test (FST) was adopted.
Female sabra mice 6-8 weeks old were employed. Measurement of locomotor activity in mice movements were counted for 6 minutes.
Forced Swimming test (FST): The forced swimming test employed was essential similar to that described in ((Pettit-Demoulier et al, (2005) Psychopharmacology 177:245-255;)
Mice were dropped individually into a glass aquarium (height […], diameter 10 cm) containing 10 cm of water and their activity was monitored for 6 minutes. Of the total 6 minutes only the last 4 minutes was recorded—the first 2 minutes were considered as time for habitation.
The mice were treated either with 5 mg/kg or 10 mg/kg of HU436 (ip). Mice were scored at 10 minutes 90 minutes or 180 minutes after administration. In addition to mice treated with vehicle as control, 1 mice was injected ip with 5 mg/kg CBD and scored 10 minutes later. The movements/kicking of the mice were counted and the data are presented in the attached Table 1.

The test system of the next data set is TNFα. Nature of the data set: TNFα levels in sera of zymosan-injected Sabra mice (Elisa). The following applies: 24 hrs after application. The protocol:
Activity of HU-436 given orally were assayed in Sabra mice. Zymosan injected to mice left hind paw, induced inflammation, TNF (tumor necrosis factor) in the serum as well as pain. During 24 h, the inflammatory paw swelling response was assayed by caliper, whereas the pain in the hind paw, was determined by Von Frey monofiber instrument.
Sabra female, mice 6-7 weeks old, were employed. Zymosan 0.6 mgr in 40 micro-liters was injected into the left hind paw. Immediately thereafter 20 30, 50 or 100 mg/kg HU436 dissolved in olive oil, in 200 μl—was given orally. Two, six and twenty-four hours thereafter, the injected left hind paw of the mice (total 5-8 mice/treatment), were examined both for swelling (Inflammation) and pain (Von Frey). The levels of TNFα in the sera of Sabra mice were determined by Elisa, 24 hrs after HU-436 application.

The next data set concerns Sabra mice. Nature of the data set: Zymosan-induced hind paw swelling (inflammation), caliper. The note with it: all experiments.

As to `C=C(C)[C@@H]1CCC(C)=C[C@H]1c1c(O)cc(CCCCC)cc1O` [CBD, Cannabidiol, reference compound], the “moment/kicking per minute score, Mean” value with Female sabra mice (mean of last 4 min) turned out to be 65 per minute. Also, the “moment/kicking per minute score” value in the data set on Female sabra mice (minute 3 in tank) came out at 76 per minute; with Female sabra mice (minute 4 in tank) it was 75 per minute; with Female sabra mice (minute 5 in tank) it was 48 per minute; in the data set on Female sabra mice (minute 6 in tank), 60 per minute. The “reduction of TNFα levels in the sera” value in the data set with TNFα is listed as 48-58%. In addition, the “potency in reducing inflammation relative to HU-436” value with Sabra mice is “scientifically more potent than HU-436 in reducing inflammation”.
